One data set relates to Beagle dogs. Description: Single-dose subcutaneous toxicity in dogs. The following applies: 1 mL/kg of a 6-mg/mL concentration of L-lysine; same animals. The format is in vivo. From the text: One group of one male and one female Beagle dogs received single escalating subcutaneous doses of Rx100.Lysine at 10 and 1 (female)/1.52 (male) mg/kg. […] Parameters evaluated included clinical signs, body weight, and gross pathology. The male and female dog survived until scheduled necropsy on Day 15. Administration of Rx100 had no effect on body weight or general health of the animals. Noteworthy clinical observations were confined to skin and behavior effects. Both animals scratched at the dose site, likely contributing to observations of redness at the dose site. Swelling and a thickened/raised area were also observed during the observation period. Clinical observations were sufficient to warrant the injection of diphenhydramine. […] Following injection of the L-lysine component of the formulation at an independent site, redness, scratching, or swelling was not seen.

A short description of data set [1]: Short term (24 hour) slurry tests, XRPD of wet and dried solids. The format is physicochemical. The following applies: 24 hour slurry; Water; one cell for 25° C. and 50° C.; starting form A. The protocol:
Second, short term slurry tests were performed. Rx100.L-Lysine salt was slurried for a minimum of 24 hours in 15 different solvent systems at two different temperatures (25 and 50° C.) in an attempt to provide information for crystallization experiments and design of polymorph screening experiments. A 48 position Chemglass reaction block was used for heating and stirring the slurries which were in 2 mL HPLC vials. After the due time, vials were centrifuged and the wet solids were used for X-ray diffraction. […]

The nature of data set [2]: Gravimetric moisture sorption analysis, with XRPD afterwards. The format is physicochemical. The following applies: lot 1980-18-1; 95% RH; reversible. As to the method:
Moisture sorption analysis of the Rx100.L-Lysine salt was performed by equilibrating the sample at 25° C. and 50% RH to simulate ambient lab conditions. Humidity then decreased to 0% RH, increased from 0 to 95% RH, reduced from 95 to 0% RH, increased from 0 to 95% RH and then decreased from 95 to 50% RH.

The nature of data set [3]: Characterization of scaled-up Rx100.L-Lysine salt (XRPD, DSC, TGA, 1H NMR, Karl Fischer, optical microscopy). The format is physicochemical. The settings on record: scaled-up lot 1980-18-1. As to the method:
The Rx100.L-Lysine salts were dried overnight under vacuum at 35° C. and then characterized by XRPD, DSC, TGA, ^1HNMR, Karl Fischer (KF), optical microscopy and moisture sorption assays.
Ratio of Rx-100 to L-Lysine in the salt was calculated based on the ^1HNMR integration ratio of set-A protons to set-B protons of the salt. Set-A protons are from Rx-100 part of the molecule and set-B protons are from L-Lysine part of the molecule. These two set of protons were selected because they are very well separated from rest of the protons in the ^1HNMR of the molecule. As shown in the molecular scheme in FIG. 39, set-A protons correspond to two olefinic protons of Rx100 and appear at […] in the ^1H NMR. In contrast, set-B protons correspond to methylene of lysine part and appear at […]. Comparison of ^1H NMR integration values for set-A and set-B protons indicates the ratio of Rx100 to lysine as 1:1.5.
The exhibition of birefringence observed by optical microscopy confirmed the crystallinity observed by XRPD

A short description of data set [4]: Rx100 salt screening (solid formation, XRPD wet/dry, filterability, exposure to RH > 90%). The following applies: for Filterability / Crystallinity / Polymorphic behavior: Rx100 salt formed with the named base; for Crystallinity / Polymorphic behavior: XRPD; for XRPD, wet: stage 2 round 2, Rx100 free acid + 1 eq base (label = base); for All solvents were evaporated to get a gel: label = base, nature/filterability of the solid. The protocol:
We designed a complex and unconventional screening regime to screen for Rx100 crystalline salts. […] The screening regime is described as follows.
Rx100.FA in the form of a viscous liquid and eighteen counter ions were used as starting materials. These counter ions are listed and numbered in Table 4. The numbers will be used for grouping the resulting solids. The screening was performed in three stages.
Stage one (1) included screening 11 counter ions: sodium hydroxide, ammonium hydroxide, ethylenediamine, diethylamine, tromethamine (Tris), hydroxyethyl morpholine, benzathine, dimethylamino ethanol, L-Arginine, L-Lysine, L-Histidine. […] In stage 1, we performed three rounds of experiment.
In the first round of experiment, four (4) solvent systems, i.e., isopropyl alcohol (IPA), diethyl ether (DEE), IPA:water (a mixture at a volume ratio of 95:5) and tetrahydrofuran (THF), were used. Thus in this first round of screening, 44 individual base-acid reactions were conducted in 44 vials.
First, Rx100.FA and each of the bases were mixed in a vial. […] In each of the 44 vials, 211.1 μL of the prepared liquid, which was equivalent to about 35 mg of Rx100.FA, was first dispensed. Then, one equivalent (molar) of each of the 11 bases was dispensed in its corresponding vial. For example, the base sodium hydroxide was added to vials 1, 12, 23 and 34. Similarly, L-histidine was added to vials 11, 22, 33 and 44. Observations were recorded upon addition of the bases in to Rx100.FA.
Second, the solvent in each mixture was depleted. All vials containing the mixtures of Rx100.FA and each of the bases were left under moderate vacuum and nitrogen bleed at room temperature overnight to evaporate the solvent. The vials were then kept under full vacuum for about an hour to make sure the solvents (ethanol and water) are evaporated. Observations on formation of solid upon evaporation were recorded.
Third, solvents were added in each vial to induce solid formation. In each vial, a stir bar and one of the four selected solvents (each 5 volumes with respect to the Rx100.FA) were added. The vials were then capped. IPA was added to the first set of 11 vials (1-11), DEE added to the second set of 11 vials (12-22), IPA:water added to the third set of 11 vials (23-33), and THF added to the fourth set of 11 vials (34-44). The vials were left at room temperature while stirring for at least 5 hours. Observations were recorded.
The first set of XRPD analyses were recorded as “wet” samples. The solids were dried under vacuum for 1 hour and at room temperature followed by XRPD as “dry” sample. The dry solid was then exposed to relative humidity of more than 90% overnight followed by XRPD analysis. For XRPD naming, a number and a letter were used. The number refers to the counter ion and the letter refers to the chronological discovered XRPD pattern of that particular salt.
In the second round of experiment of stage one, another four (4) solvent systems, i.e., methanol (MeOH), tert-Butyl methyl ether (tBME), ethyl acetate and toluene, were used in the same 44 vials as used in the first round experiment. The solvents in all 44 vials from the first round were evaporated to dryness under vacuum and nitrogen bleed. The 4 new solvents were then added into the vials. Methanol was added to the first set of 11 vials (1-11), tBME added to the second set of 11 vials (12-22), Ethyl acetate added to the third set of 11 vials (23-33), and Toluene added to the fourth set of 11 vials (34-44). The same procedure as in the first round of experiment was followed for these new solvents and samples were taken for XRPD analysis.
In the third round of experiment, effect of base equivalence was assessed. […] After addition of the extra base, the previous solvent was evaporated and new solvents added.

The target in data set [5] is LPA2 receptors from the rhesus (Macaca mulatta, UniProt I2CXV3). Description: Calcium-mobilization assay (FURA-2), rhesus LPA2. The format is cell-based. The settings on record: LPA2 DKO MEF, rhesus, mean. The protocol: (§1) We investigated structure-activity relationships across species, LPAR subtypes and between Rx100 and two known process impurities encountered in manufacture: Rx103 (‘E’ isomer) and Rx200 (oleyl phosphate and impurity, which can be an Rx100 degradant along with oleyl alcohol). Rx100, Rx103, Rx200 and native LPA were investigated at different human LPAR subtypes. In addition, the activity of these compounds was evaluated at LPA2 receptors from the rhesus, rat and mouse species. Human LPA1/2/3 subtypes were transfected into mouse embryonic fibroblasts (MEF) or rat hepatoma cells (RH7777)—both of which are normally non-responsive or null to LPA. Human LPA4 was transfected into Chinese hamster ovary (CHO) cells and LPA5 into the B103 neuroblastoma cell line. […] The B103 rat neuroblastoma cell line is endogenously nonresponsive to LPA but expresses heterologous LPA5 receptors well. […] LPAR activation elicits a G-protein-mediated transient rise in intracellular calcium level that is proportional to the concentration of LPA applied. The intracellular calcium level was quantified by the calcium-selective fluorescent indicator FURA-2 (e.g., increased intracellular calcium surge=increased fluorescence).
Chain of LPA2 receptors from the rhesus (I2CXV3 1-351): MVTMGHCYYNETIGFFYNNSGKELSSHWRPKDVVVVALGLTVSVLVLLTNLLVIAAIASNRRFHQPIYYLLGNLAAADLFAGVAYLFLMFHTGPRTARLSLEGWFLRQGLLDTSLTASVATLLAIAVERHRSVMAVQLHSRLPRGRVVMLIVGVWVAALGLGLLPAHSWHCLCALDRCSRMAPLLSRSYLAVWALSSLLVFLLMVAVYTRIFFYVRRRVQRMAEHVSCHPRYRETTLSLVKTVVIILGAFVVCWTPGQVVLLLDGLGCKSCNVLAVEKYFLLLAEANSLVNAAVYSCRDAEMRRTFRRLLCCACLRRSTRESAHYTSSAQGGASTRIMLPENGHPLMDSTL

The target in data set [6] is LPA2 receptors from the rat (Rattus norvegicus, UniProt A0ABK0LT65). Description: Calcium-mobilization assay (FURA-2), rat LPA2. The following applies: LPA2 DKO MEF, rat, mean. The format is cell-based. The protocol:
as §1

A further data set relates to Control CHO. Kind of data set: Calcium-mobilization assay, untransfected Control CHO cells. The format is cell-based, Chinese hamster. The settings on record: Control CHO (untransfected; endogenously expresses LPA1). As to the method: as §1
The next data set has as its target T1, Human LPA1 (Homo sapiens, UniProt Q92633).
T1 construct: expressed in transfected cells; host or cells: mouse embryonic fibroblasts (MEF)
Kind of data set: Calcium-mobilization assay (FURA-2), human LPA1 transfected cells. The format is cell-based. The settings on record: mean; for EC50: read-out: EC50. The protocol: as §1

The target in data set [7] is T2, LPA2 receptors from the mouse (Mus musculus, UniProt Q9JL06).
T2 construct: expressed in transfected cells
T2 sequence (Q9JL06 whole entry): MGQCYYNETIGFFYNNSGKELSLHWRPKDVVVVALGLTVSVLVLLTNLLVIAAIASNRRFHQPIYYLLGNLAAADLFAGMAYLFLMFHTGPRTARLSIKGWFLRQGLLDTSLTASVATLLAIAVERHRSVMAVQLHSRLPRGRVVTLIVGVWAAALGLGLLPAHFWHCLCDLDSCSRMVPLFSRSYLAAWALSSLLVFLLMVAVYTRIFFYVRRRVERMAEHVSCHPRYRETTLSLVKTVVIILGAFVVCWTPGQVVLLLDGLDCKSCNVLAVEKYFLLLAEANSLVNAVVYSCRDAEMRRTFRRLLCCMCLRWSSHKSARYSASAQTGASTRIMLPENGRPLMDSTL
Kind of data set: Calcium-mobilization assay (FURA-2), mouse LPA2. The format is cell-based. The following applies: LPA2 DKO MEF, mouse, mean. The protocol: as §1

Where two headings read alike, the source gives them in different places.

T1 sequence (Q92633 whole entry): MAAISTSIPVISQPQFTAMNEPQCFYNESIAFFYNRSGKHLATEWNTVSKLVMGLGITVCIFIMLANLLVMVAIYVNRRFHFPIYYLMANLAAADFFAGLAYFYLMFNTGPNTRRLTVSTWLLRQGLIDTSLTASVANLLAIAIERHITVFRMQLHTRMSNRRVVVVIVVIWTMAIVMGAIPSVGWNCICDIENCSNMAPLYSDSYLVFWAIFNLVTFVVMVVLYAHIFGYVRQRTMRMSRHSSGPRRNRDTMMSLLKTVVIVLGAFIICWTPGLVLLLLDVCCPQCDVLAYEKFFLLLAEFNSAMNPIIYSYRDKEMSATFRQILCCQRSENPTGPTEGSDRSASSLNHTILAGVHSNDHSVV
Chain of LPA2 receptors from the rat (A0ABK0LT65 1-348): as the sequence (Q9JL06 whole entry) above, with A153V, A189V, Y211F, M310T, S316H, R321H, A324S, Q327R, R341H counted along it

Take `NCCCC[C@H](N)C(=O)O` [L-lysine component, L-lysine]: the “tolerability of subcutaneous injection” value in the data set on Beagle dogs was “well tolerated”.

`CCCCCCCC/C=C\CCCCCCCCOP(O)(O)=S.NCCCC[C@H](N)C(=O)O` [Rx100. L-Lysine Salt]: the “Resulting Form” value in [1] is “Dissolved”.

On to `CCCCCCCC/C=C\CCCCCCCCOP(O)(O)=S.NCCCC[C@H](N)C(=O)O` [Rx100. L-Lysine salt], for which the “Moisture Sorption [Wt. % at 95% RH]” value in data set [2] is 20.6 Wt. %. Moreover, in data set [3], the “KF [Wt % water]” value was determined as 1.8 Wt % water, the “Optical Microscopy” value is on record as “Birefringent”, the “TGA [% Wt. loss]” value turned out to be 1.1 % Wt. loss and the “XRPD [Form]” value was “Crystalline”.

As to `NC(CO)(CO)CO` [Tromethamine], in data set [4], the Filterability entry was “no”, the Crystallinity result is “no” and the Polymorphic behavior result was “Oily on XRPD”. Further, in [4] (stage 1, third round, 2.1 eq of base, listed as 4-16), the “RH > 90% overnight (XRPD pattern or state after exposure)” value is 5-A + Tris.

Regarding Ca(OH)2, the “XRPD, wet” value in [4] (Ethyl acetate) and in data set [4] (IPA:water (1:1)) was “Calcium” throughout.

Take L-Arginine: in [4], the Filterability result is “yes*”, the Crystallinity result was “yes” and the Polymorphic behavior result is recorded as “Greasy on XRPD”.

For the compound Piperazine, in data set [4], the Filterability entry is “yes”, the Crystallinity result is given as “yes” and the Polymorphic behavior result is “Multiple patterns on XRPD”. The “Solid upon evaporation (Y/N)” value in data set [4] (stage 3, 35 mg Rx100 free acid + base (label = base), 1.05 eq, L-lysine 2.00 eq) is reported as “Gel”. The “All solvents were evaporated to get a gel” value in data set [4] (stage 3, 1.05 eq, L-lysine 2.00 eq, solvent MeOH:Water [9:1]) is listed as “Greasy”. Besides, the “All solvents were evaporated to get a gel” value in data set [4] (stage 3, 1.05 eq, L-lysine 2.00 eq, solvent MeOH) is reported as “Greasy”.

Regarding “lysophosphatidic acid [LPA, reference compound]”, the “Emax (% of LPA)” value in data set [5] was 100 % of LPA; in [6], 100 % of LPA; in the data set with Control CHO it was 12%; at Human LPA1 (LPA1 DKO MEF, human) it was 100 % of LPA; at Human LPA1 (LPA1 RH7777, human), 100 % of LPA; in data set [7], 100 % of LPA. The EC50 in [5] (read-out: EC50) worked out at 1.3 nM; in data set [6] (read-out: EC50), 1.7 nM; in the data set with Control CHO (read-out: EC50) it was 605 nM; at Human LPA1 (LPA1 DKO MEF, human) it was 354 nM; on Human LPA1 (LPA1 RH7777, human) it was 28 nM; in data set [7] (read-out: EC50), 4.4 nM.

By EC50 is commonly meant the concentration giving half of the maximal effect.

The values are drawn from patent publication US20170226139A1, “CRYSTALLINE SALTS OF (Z)-O-OCTADEC-9-EN-1-YL O,O-DIHYDROGEN PHOSPHOROTHIOATE” (priority 2013, published 2017).
